Earlier results, collected in patent publication US4202888A, “Readily enterally absorbable pharmaceutical compositions of cardiac glycosides and preparation thereof” (priority 1976, dated 1980).

Conditions: for enteral absorbability (in words): background statement; for per se enteral absorbability: without partial glycerides

| Molecule | enteral absorbability (in words) | per se enteral absorbability | factor of individual variation in enteral absorption (between individuals) |
| --- | --- | --- | --- |
| C[C@H]1O[C@@H](O[C@H]2[C@@H](O)C[C@H](O[C@H]3[C@@H](O)C[C@H](O[C@H]4CC[C@@]5(C)[C@H](CC[C@@H]6[C@@H]5C[C@@H](O)[C@]5(C)[C@@H](C7=CC(=O)OC7)CC[C@]65O)C4)O[C@@H]3C)O[C@@H]2C)C[C@H](O)[C@@H]1O [digoxin] | to at least an acceptable degree |  |  |
| k-strophanthin | insufficient enteral absorbability | less than 5% |  |
| C[C@H]1O[C@@H](O[C@H]2[C@@H](O)C[C@H](O[C@H]3[C@@H](O)C[C@H](O[C@H]4CC[C@@]5(C)[C@H](CC[C@@H]6[C@@H]5CC[C@]5(C)[C@@H](C7=CC(=O)OC7)CC[C@]65O)C4)O[C@@H]3C)O[C@@H]2C)C[C@H](O)[C@@H]1O [digitoxin] | absorbable completely |  |  |
| CC1OC(OC2CC(O)C3(CO)C4C(O)CC5(C)C(C6=CC(=O)OC6)CCC5(O)C4CCC3(O)C2)C(O)C(O)C1O (stereo not drawn) [g-strophanthin] | insufficient enteral absorbability | less than 5% | 10 |
| C[C@@H]1O[C@@H](O[C@@H]2C=C3CC[C@@H]4[C@H](CC[C@]5(C)[C@@H](c6ccc(=O)oc6)CC[C@]45O)[C@@]3(C)CC2)[C@H](O)[C@H](O)[C@H]1O [proscillaridin] | insufficient enteral absorbability | less than 5% |  |
